Drawing on patent US9024019B2, “Insecticidal triazinone derivatives” (Syngenta Participations AG, priority 2011, dated 2015), this text covers melting point for twelve molecules.

Molecules are shown by their SMILES.

By melting point is commonly meant the temperature, or range, at which the solid turns liquid.

The molecule `CO/N=C/C1=NNC(=O)N(/N=C/c2cccnc2)C1` gave a melting point of 237 to 238 °C. For `CO/N=C/C1=NNC(=O)N(/N=C/c2cncc(F)c2)C1` the value was 226 to 227 °C; for `CO/N=C/C1=NNC(=O)N(/N=C/c2ccc[n+]([O-])c2)C1`, 229 °C (dec.); for `CO/N=C/C1=NNC(=O)N(/N=C/c2cncnc2)C1`, 244 to 245 °C. In turn, `CO/N=C/C1=NNC(=O)N(/N=C/c2cnccn2)C1` had a melting point of 233 to 234 °C. `CO/N=C(\C)C1=NNC(=O)N(/N=C/c2cccnc2)C1` had a melting point of 230 to 231 °C.

The molecule `CCO/N=C/C1=NNC(=O)N(/N=C/c2cccnc2)C1` yielded a melting point of 233 to 234 °C. Turning to `CN(C)/N=C/C1=NNC(=O)N(/N=C/c2cccnc2)C1`, the melting point is 229 °C (dec.). In the case of `CC1(C)CC(C2=NNC(=O)N(/N=C/c3cccnc3)C2)=NO1`, the melting point was 212 °C (dec.). Turning to `CC1(C)CC(C2=NNC(=O)N(/N=C/c3cncc(F)c3)C2)=NO1`, the melting point was 260 °C (dec.). Consider `O=C1NN=C(C2=NOC(C(F)(F)F)(C(F)(F)F)C2)CN1/N=C/c1cccnc1`, for which the melting point was 270 °C (dec.). Turning to `O=C1NN=C(C2=NOC(C(F)(F)F)(C(F)(F)F)C2)CN1/N=C/c1cncc(F)c1`, the melting point was 290 °C (dec.).
